Experimental data reported in publication PMC6412891, “Synthesis and Biological Evaluation of Novel Thiazolyl-Coumarin Derivatives as Potent Histone Deacetylase Inhibitors with Antifibrotic Activity” (Molecules, 2019).

Tests used:
HDAC6 human recombinant = target: T1, HDAC6 human recombinant (Homo sapiens, UniProt Q9UBN7); test: HDAC6 inhibitory activity, fluorometric kit; format: biochemical; conditions: Class II
T1 construct: purchased Enzo Life Science BML-AK516
T1 sequence (Q9UBN7 1-1215): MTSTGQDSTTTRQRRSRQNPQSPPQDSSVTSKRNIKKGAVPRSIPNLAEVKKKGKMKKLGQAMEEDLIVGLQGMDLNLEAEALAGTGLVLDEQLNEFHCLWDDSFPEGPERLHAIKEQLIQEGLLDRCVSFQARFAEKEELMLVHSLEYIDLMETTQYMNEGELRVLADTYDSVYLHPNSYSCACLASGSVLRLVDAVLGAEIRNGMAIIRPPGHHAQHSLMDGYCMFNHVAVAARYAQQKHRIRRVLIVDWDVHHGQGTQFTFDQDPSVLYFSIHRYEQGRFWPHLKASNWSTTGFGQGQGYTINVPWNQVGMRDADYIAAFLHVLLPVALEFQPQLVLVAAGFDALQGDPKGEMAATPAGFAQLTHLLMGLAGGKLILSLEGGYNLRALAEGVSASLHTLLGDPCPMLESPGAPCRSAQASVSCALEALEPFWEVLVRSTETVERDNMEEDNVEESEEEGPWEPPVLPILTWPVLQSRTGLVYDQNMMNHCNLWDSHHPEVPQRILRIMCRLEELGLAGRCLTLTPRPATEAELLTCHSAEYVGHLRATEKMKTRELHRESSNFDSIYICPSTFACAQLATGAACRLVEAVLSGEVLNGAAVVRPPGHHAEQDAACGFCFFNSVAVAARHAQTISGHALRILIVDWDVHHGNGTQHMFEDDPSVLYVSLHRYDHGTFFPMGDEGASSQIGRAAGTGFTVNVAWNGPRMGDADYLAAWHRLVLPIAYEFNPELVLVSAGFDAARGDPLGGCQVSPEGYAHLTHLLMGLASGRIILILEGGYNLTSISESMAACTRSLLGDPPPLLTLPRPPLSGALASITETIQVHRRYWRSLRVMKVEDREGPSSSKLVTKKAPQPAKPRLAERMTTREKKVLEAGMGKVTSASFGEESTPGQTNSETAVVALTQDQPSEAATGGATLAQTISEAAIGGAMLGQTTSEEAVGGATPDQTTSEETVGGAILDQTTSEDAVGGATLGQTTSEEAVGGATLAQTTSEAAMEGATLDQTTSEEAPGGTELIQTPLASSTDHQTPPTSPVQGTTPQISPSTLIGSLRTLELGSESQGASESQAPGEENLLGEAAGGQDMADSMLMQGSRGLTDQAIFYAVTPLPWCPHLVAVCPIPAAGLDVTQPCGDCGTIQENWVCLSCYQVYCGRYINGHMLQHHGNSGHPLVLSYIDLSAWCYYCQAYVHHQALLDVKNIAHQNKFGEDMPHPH

[1] = system: HDACs HeLa cells nuclear extract; test: HDAC inhibitory activity, fluorometric kit, HeLa cell nuclear extract; format: biochemical, human; conditions: HeLa cell nuclear extract as HDAC source
α-SMA expression in CFs = test: α-SMA expression levels in cardiac fibroblasts, western blot; format: cell-based, rat; conditions: for α-SMA expression levels: 5 μM for 48 h, absence of TGF-β1, vs. control; for α-SMA expression levels induced by TGF-β1: derivatives 5 μM (TSA 0.1 μM) for 48 h in presence of TGF-β1
Experimental: For this purpose, a fixed concentration of 5a, 6a, 7a and 8a derivatives in the presence/absence of TGF–β1 (a strong inducer of CFs–to–CMFs differentiation), was studied, and α–SMA expression levels were measured by using the western blot technique. TSA was used as a control and also for comparative purposes.
For the analysis of the protein expression of histone H4–acetylated (ac–H4) and total H4 histone, a number of 1 × 10^6 of CFs seeded in 60 mm plates was used, which were incubated with the inhibitory compounds at a concentration of 10 μM, in the absence/presence of TGF–β1(5ng/mL) for 4 h. Subsequently, total histones were extracted by the technique of saline precipitation (high salt extraction). Briefly, CFs were scraped from the plates with 1 mL of cold PBS transferring their contents to Eppendorf tubes to be centrifuged for 60 s at 1500 rpm at 4 °C and re–suspended in 400 μL of cold buffer A (10 mM 4-(2-hydroxyethyl)-1-piperazineethanesulfonic acid-KOH (HEPES-KOH) adjusted to pH 7.9, 1.5 mM MgCl2, 10 mM KCl, 0.5 mM dithiothreitol and 0.2 mM phenylmethylsulfonyl fluoride (PMSF). The suspension is left on ice for 10 min and then placed in the vortex for 10 s. The samples were centrifuged for 60 s, subsequently discarding the supernatant fraction. The obtained pellet was re-suspended in 60 μL of cold C buffer (20 mM HEPES-KOH adjusted to pH 7.9, 25% glycerol, 420 mM NaCl, 1.5 mM MgCl2, 0.2 mM EDTA, dithiothreitol 0.5 mM and 0.2 mM PMSF) and placed on ice for 20 min for saline precipitation. Cell debris is removed by centrifugation for 120 s at 1500 rpm at 4 °C and the supernatant fraction, which contains the DNA binding proteins, is stored at minus 20 °C. For the analysis of α–SMA and procollagen type I expression levels, 3×10^5 CFs seeded in 35 mm plates were used, which were incubated together with inhibitor compounds at a 5 μM, in the absence/presence of TGF–β1 (5 ng/mL) for 48 h. To obtain the total proteins, the CFs were washed three times with cold PBS, then scraped and lysed with 50 μL of radio inmuno-precipitation assay (RIPA) lysis buffer (10 mM Tris–HCl pH 7.2, 5 mM EDTA, 150 mM NaCl, Triton X–100 1%, sodium dodecyl sulfate (SDS) 0.1%, deoxycholate 1%, leupeptin 2 μg/mL, aprotinin 10mM, PMSF 1mM and Na3VO4 100μM). The solution was centrifuged for 15 min at 10,000 rpm and at 4 °C. The supernatant fraction containing the total proteins was stored at minus 20 °C. The concentration of proteins obtained was determined by spectrophotometry at 570 nm, using the Bradford method (Bio-Rad, Hercules, CA, USA).
CFs proteins (25 μg), were subjected to 10% sodium dodecyl sulfate-polyacrylamide gel electrophoresis and finally transferred onto a nitrocellulose membrane (Millipore, Billerica, MA, USA). The membrane was washed twice with tris–buffered saline solution containing 0.1% Tween 20 (TBST). After being blocked with TBST containing 5% nonfat milk for 40 min, the membrane was incubated with primary antibodies in TBST/1% nonfat milk at 4 °C overnight. The membrane was washed three times with TBST for a total of 15 min and then incubated with primary antibodies (ac–H4, H4 total, α-SMA, procollagen type I and GAPDH). Then the membrane was incubated with goat anti–rabbit or anti-mouse IgG antibodies conjugated with horseradish (diluted 1:1000) for 1 h at room temperature. Signals were developed with ECL reagents and exposure to photographic film.
Figure 4 CTz non–substituted inhibit α-SMA expression in cardiac fibroblasts. (A) CFs were exposed to 5a, 6a, 7a and 8a at 5 μM for 48 h. […] (B) CFs were exposed to 5a, 6a, 7a and 8a at 5 μM for 48 h in presence of TGF–β1 ([…]). α-SMA expression levels were measured by western blot. GAPDH was used as control load.

Row | SMILES | IC50 (HDAC6 human recombinant) | IC50 [1] | α-SMA expression levels (α-SMA expression in CFs) | α-SMA expression levels induced by TGF-β1 (α-SMA expression in CFs)
1 | O=C(CCCCC1CCSS1)Nc1nc(-c2cc3ccccc3oc2=O)cs1 (stereo not drawn) [Compound 5a, 5-[1,2]-Dithiolan-3-yl-N-[4-(2-oxo-2H-chromen-3-yl)-thiazol-2-yl]-pentanamide] | 153 ± 5.3 nM | 66.7 ± 2.9 nM | decreased in a statistically significant manner | decrease close to control levels
2 | O=C(Nc1nc(-c2cc3ccccc3oc2=O)cs1)c1ccc(O)c(O)c1 [Compound 6a] | 276 ± 20.9 nM | 574 ± 24.4 nM | decreased in a statistically significant manner | decrease close to control levels
3 | O=C(O)CCCCC(=O)Nc1nc(-c2cc3ccccc3oc2=O)cs1 [Compound 7a] | 5590 ± 184 nM | 6100 ± 390 nM | had no effect | 
4 | O=C(CCCCC(=O)Nc1nc(-c2cc3ccccc3oc2=O)cs1)NO [Compound 8a, 5-[4-(2-Oxo-2H-chromen-3-yl)-thiazol-2-yl-carbamoyl]-N-hydroxypentanamide] | 98.3 ± 3.5 nM | 66.9 ± 1.8 nM | decreased in a statistically significant manner | decrease close to control levels
